Experimental data reported in patent publication US9950062B2, “Compounds and compositions as TLR activity modulators” (priority 2009, dated 2018).

Assays:
[1] = Adsorption to aluminum hydroxide, LC-MS/MS of supernatant; conditions: 10 mM histidine buffer pH 6.8; final compound concentration 0.1 mg/mL; 37° C. for 5 hours; 100% minus % unbound
Procedure: The resulting solution was diluted 10-fold with blank histidine buffer to a final compound concentration of 0.1 mg/mL. Diluted solutions were incubated at 37° C. for 5 hours. The samples were centrifuged at 14,000 rpm for 10 minutes to pellet the insoluble. The supernatant (along with an internal standard) was then evaluated by LC-MS/MS using a ballistic gradient (from 5% CH3CN-0.5% formic acid to 95% CH3CN-1.0% formic acid in 3.5 minutes) on a Waters Atlantis dC18 (50 mm×2.1 mm) column at room temperature against a calibration curve prepared at known compound concentrations ranging from 0.005 to 50 μM. The concentration in the supernatant was calculated as % unbound to alum compared to control; the % bound to alum was calculated as 100% minus % unbound.

five different strains = experiment: Strain coverage of sera after immunization with modified 5CVMB; format: in vivo, MenB; conditions: compound pre-adsorbed to aluminium hydroxide
Source text: 2010 claiming priority from U.S. Ser. No. 61/237,576 (SEQ ID NO: 126 therein).

[2] = Muscle levels 24 hours after intramuscular injection; conditions: 24 hours after intramuscular injection (100 μg) with protein antigens, Balb/C mice

Cc1cc(OCCOCCOCCP(=O)(O)O)ccc1CCc1cnc2c(N)nc3cc(CCC(=O)O)ccc3c2c1 [Compound 20, 3-(5-amino-2-(2-methyl-4-(2-(2-(2-phosphonoethoxy)ethoxy)ethoxy)phenethyl)benzo[f][1,7]naphthyridin-8-yl)propanoic acid]
% bound to alum [1]: 97.0%
strain coverage compared to aluminium hydroxide alone (five different strains): improves the strain coverage
muscle level of compound ([2]; with aluminium hydroxide adjuvant): readily detected
muscle level of compound ([2]; without aluminium hydroxide adjuvant): undetectable
